Laboratory results taken from patent US8637443B2, “Cleaning compositions and methods comprising a hydrofluoro-olefin or hydrochlorofluoro-olefin solvent” (Honeywell International Inc., priority 2008, dated 2014).

Test: toxicity (comparative statement, no method given)
Settings: in comparison to CF3CH═CF2 (HFO-1225zc)

Compound: FC=C(F)C(F)(F)F [HFO-1225yez, 1,1,1,2,3 pentafluoropropene]
- degree of toxicity: relatively low degree of toxicity
